Experimental data taken from ChEMBL document CHEMBL4270556, “Current progress on antioxidants incorporating the pyrazole core” (Eur J Med Chem, 2018).

Legend:
[1] = Antioxidant activity assessed as DPPH radical scavenging activity at 30 to 50 ug/ml relative to control; format: functional
[2] = Antioxidant activity assessed as DPPH radical scavenging activity at 100 mM after 30 mins relative to control; format: functional
[3] = Antioxidant activity assessed as ferric ion reducing activity after 20 mins in presence of potassium ferricyanide by FRAP assay relative to control; format: functional; design: scale not given: the % may be the effect or the level left
[4] = Antioxidant activity assessed as nitric oxide radical scavenging activity at 100 mM after 150 mins in presence of sodium nitroprusside relative to control; format: functional
[5] = Antioxidant activity assessed as DPPH radical scavenging activity at 10^-3 M relative to control; format: functional
[6] = Antioxidant activity assessed as DPPH radical scavenging activity after 20 mins by UV absorbance method relative to control; format: functional
[7] = Antioxidant activity assessed as inhibition of lipid peroxidation relative to control; format: functional; details: dose or concentration not given here
[8] = Antioxidant activity assessed as DPPH radical scavenging activity at 10 ug/ml after 20 mins by UV absorbance method relative to control; format: functional
[9] = Antioxidant activity assessed as radical scavenging activity at 30 to 50 ug/ml relative to control; format: functional
[10] = Antioxidant activity assessed as DPPH radical scavenging activity at 80 ug/ml relative to control; format: functional
[11] = Antioxidant activity assessed as DPPH radical scavenging activity at 60 ug/ml relative to control; format: functional
[12] = Antioxidant activity assessed as DPPH radical scavenging activity at 20 ug/ml relative to control; format: functional
[13] = Antioxidant activity assessed as DPPH radical scavenging activity at 40 ug/ml relative to control; format: functional
[14] = Antioxidant activity assessed as inhibition of DPPH radical at 100 ug/ml relative to control; format: functional

SMILES: COc1ccc(C2C(c3ccc(Cl)cc3)=NN(c3ccccc3)C2C#N)cc1 (configuration not stated)
- Activity [1]: < 60%

SMILES: COc1ccc(C2C(c3ccccc3)=NN(c3ccccc3)C2C#N)cc1 (configuration not stated)
- Activity [1]: < 45%

SMILES: COc1ccc(C2=NN(c3ccccc3)C(C#N)C2c2ccc(OC)cc2)cc1 (configuration not stated)
- Activity [1]: < 45%

SMILES: O=C(/C=C/c1cn(-c2ccccc2)nc1-c1ccc(Br)cc1)c1cccc(NC(=O)c2ccc(F)cc2)c1
- Activity [2]: 36.8 to 42.3%
- Activity [3]: 44.4 to 55.5%
- Activity [4]: 32.4 to 77.9%

SMILES: NS(=O)(=O)c1ccc(-n2nc(-c3cccs3)cc2-c2cnn(-c3ccccc3)c2)cc1
- Activity [5]: 12%

SMILES: O=C(/C=C/c1cn(-c2ccccc2)nc1-c1ccc(Cl)cc1)c1cccc(NC(=O)c2ccc(F)cc2)c1
- Activity [3]: 44.4 to 55.5%
- Activity [4]: 32.4 to 77.9%

SMILES: COc1ccc(C2C(c3ccc(F)cc3)=NN(c3ccccc3)C2C#N)cc1 (configuration not stated)
- Activity [1]: < 60%

SMILES: Cc1ccc(-n2nc(-c3ccccc3)cc2Cn2cnc3c(N4CCOCC4)ncnc32)cc1
- Activity [6]: 62 to 79%
- inhibition [7]: 99%

SMILES: Clc1ncnc2c1ncn2CC1CC(C2=NNC(Cn3cnc4c(Cl)ncnc43)C2)=NN1 (configuration not stated)
- Activity [6]: 62 to 79%

SMILES: O=C(c1ccc(Cl)cc1)N1N=C(Cn2c3ccccc3c3nc4cc(Cc5ccc6nc(-c7ccccc7)c(-c7ccccc7)nc6c5)ccc4nc32)CC1c1ccc(Cl)cc1 (configuration not stated)
- Activity [8]: 58.3%

SMILES: CC(C)(C)OC(=O)N1CCN(c2ncnc3c2ncn3CC2CC(c3ccccc3)=NN2c2ccccc2)CC1 (configuration not stated)
- Activity [6]: 13 to 24%
- inhibition [7]: 54%

SMILES: NS(=O)(=O)c1ccc(N2N=C(c3ccco3)CC2c2cnn(-c3ccccc3)c2)cc1 (configuration not stated)
- Activity [5]: 23%

SMILES: Clc1ncnc2c1ncn2CC1CC(c2ccccc2)=NN1c1ccccc1 (configuration not stated)
- Activity [6]: 13 to 24%
- inhibition [7]: 94%

SMILES: O=C(Nc1ccccc1)NS(=O)(=O)c1ccc(N2N=C(c3ccco3)CC2c2cnn(-c3ccccc3)c2)cc1 (configuration not stated)
- Activity [5]: 25%

SMILES: O=C1[C@H]2C(c3ccc(Cl)cc3)=NN(c3ccccc3)[C@H]2C(=O)N1c1ccccc1
- Activity [9]: < 40%

SMILES: COc1ccc(-c2nn(-c3ccccc3)cc2/C=C/C(=O)c2cccc(NC(=O)c3ccc(F)cc3)c2)cc1
- Activity [3]: 44.4 to 55.5%
- Activity [4]: 32.4 to 77.9%

SMILES: NS(=O)(=O)c1ccc(N2N=C(c3cccs3)CC2c2cnn(-c3ccccc3)c2)cc1 (configuration not stated)
- Activity [5]: 29%

SMILES: CCOC(=O)C1=C(N)Oc2c(c(C)nn2C(=O)c2ccncc2)C1c1c(-c2ccc(C)cc2)[nH]c2ccccc12 (configuration not stated)
- Activity [10]: 76.1%
- Activity [11]: 76.1%
- Activity [12]: 80.1%
- Activity [13]: 79.6%

SMILES: Cc1ccc(-n2nc(-c3ccccc3)cc2Cn2cnc3c(Cl)ncnc32)cc1
- Activity [6]: 60%

SMILES: COc1ccc(C2CC(Cn3c4ccccc4c4nc5cc(Cc6ccc7nc(-c8ccccc8)c(-c8ccccc8)nc7c6)ccc5nc43)=NN2C(=O)c2ccc(Cl)cc2)cc1 (configuration not stated)
- Activity [8]: 59.4%

SMILES: Cc1ccc(N2N=C(c3ccccc3)CC2Cn2cnc3c(N4CCCC4)ncnc32)cc1 (configuration not stated)
- Activity [6]: 43 to 44%
- inhibition [7]: 49%

SMILES: CCOC(=O)c1c(C)nn(-c2cccc(Cl)c2)c1-c1ccc(N(C)C)cc1
- inhibition [14]: 22.2 to 49.9%

SMILES: CCOC(=O)c1c(C)nn(-c2ccccc2)c1-c1ccc([N+](=O)[O-])cc1
- inhibition [14]: 22.2 to 49.9%

SMILES: O=C1[C@H]2C(c3ccccc3)=NN(c3ccccc3)[C@H]2C(=O)N1c1ccccc1
- Activity [9]: < 55%

SMILES: COc1ccc(C2=NN(c3ccccc3)[C@H]3C(=O)N(c4ccccc4)C(=O)[C@@H]23)cc1OC
- Activity [9]: < 55%

SMILES: c1ccc(C2=NN(c3ccccc3)C(Cn3cnc4c(N5CCCCC5)ncnc43)C2)cc1 (configuration not stated)
- Activity [6]: 13 to 24%
- inhibition [7]: 72%

SMILES: COc1ccc(C2C(c3ccc(OC)c(OC)c3)=NN(c3ccccc3)C2C#N)cc1 (configuration not stated)
- Activity [1]: 32%

SMILES: COc1ccc(C2CC(Cn3c4ccccc4c4nc5cc(Cc6ccc7nc(-c8ccccc8)c(-c8ccccc8)nc7c6)ccc5nc43)=NN2C(=O)c2ccccc2)cc1 (configuration not stated)
- Activity [8]: 50.5%

SMILES: CCOC(=O)c1c(C)nn(-c2ccccc2)c1-c1ccc(N(C)C)cc1
- inhibition [14]: 22.2 to 49.9%

SMILES: COc1ccc(C2C(c3ccco3)=NN(c3ccccc3)C2C#N)cc1 (configuration not stated)
- Activity [1]: < 45%

SMILES: O=C(/C=C/c1cn(-c2ccccc2)nc1-c1ccccc1)c1cccc(NC(=O)c2ccc(F)cc2)c1
- Activity [2]: 36.8 to 42.3%
- Activity [3]: 44.4 to 55.5%
- Activity [4]: 32.4 to 77.9%

SMILES: COc1ccc(C2=NN(c3ccccc3)[C@H]3C(=O)N(c4ccccc4)C(=O)[C@@H]23)cc1
- Activity [9]: < 55%

SMILES: Cc1ccc(N2N=C(c3ccccc3)CC2Cn2cnc3c(N4CCCCC4)ncnc32)cc1 (configuration not stated)
- Activity [6]: 13 to 24%

SMILES: Nc1n[nH]c(-c2ccccc2)c1-c1nc2c(cnn2-c2ccccc2)c(=O)[nH]1
- Activity: 92.3%

SMILES: CCOC(=O)c1c(C)nn(-c2cccc(Cl)c2)c1-c1cccc(Cl)c1
- inhibition [14]: 22.2 to 49.9%

SMILES: c1ccc(C2=NN(c3ccccc3)C(Cn3cnc4c(N5CCCC5)ncnc43)C2)cc1 (configuration not stated)
- Activity [6]: 13 to 24%
- inhibition [7]: 73%

SMILES: O=C(/C=C/c1cn(-c2ccccc2)nc1-c1ccc(F)cc1)c1cccc(NC(=O)c2ccc(F)cc2)c1
- Activity [2]: 33.3%
- Activity [4]: 32.4 to 77.9%

SMILES: COc1ccc(C2C(c3ccc(C#N)cc3)=NN(c3ccccc3)C2C#N)cc1 (configuration not stated)
- Activity [1]: < 60%

SMILES: CCOC(=O)c1c(C)nn(-c2ccc(C)cc2C)c1-c1ccc([N+](=O)[O-])cc1
- inhibition [14]: 22.2 to 49.9%

SMILES: Cc1ccc(-n2nc(-c3ccccc3)cc2Cn2cnc3c(N4CCCC4)ncnc32)cc1
- Activity [6]: 43 to 44%
- inhibition [7]: 87%

SMILES: Cc1ccc(-n2nc(-c3ccccc3)cc2Cn2cnc3c(N4CCCCC4)ncnc32)cc1
- Activity [6]: 62 to 79%

SMILES: CCOC(=O)c1c(C)nn(-c2ccc(C)cc2C)c1-c1ccc(N(C)C)cc1
- inhibition [14]: 22.2 to 49.9%

SMILES: CCOC(=O)c1c(C)nn(-c2cccc(Cl)c2)c1-c1ccc(Cl)cc1
- inhibition [14]: 22.2 to 49.9%

SMILES: Cc1ccc(N2N=C(c3ccccc3)CC2Cn2cnc3c(Cl)ncnc32)cc1 (configuration not stated)
- Activity [6]: 20%
- inhibition [7]: 58%

SMILES: O=C(Nc1ccc(Cl)cc1)NS(=O)(=O)c1ccc(N2N=C(c3ccco3)CC2c2cnn(-c3ccccc3)c2)cc1 (configuration not stated)
- Activity [5]: 16%

SMILES: O=C(c1ccccc1)N1N=C(Cn2c3ccccc3c3nc4cc(Cc5ccc6nc(-c7ccccc7)c(-c7ccccc7)nc6c5)ccc4nc32)CC1c1ccc(F)cc1 (configuration not stated)
- Activity [8]: 45.5%

SMILES: COc1ccc(C2C(c3ccc(Br)cc3)=NN(c3ccccc3)C2C#N)cc1 (configuration not stated)
- Activity [1]: < 60%

SMILES: O=C1O[C@H]([C@@H](O)CO)C(O)=C1O
- inhibition [14]: 28.6%
- Activity [2]: 43%
- Activity [3]: 42.4%
- Activity [4]: 32.3%
- Activity [8]: 40%
- Activity: 92.7%

SMILES: CCOC(=O)c1sc(Nc2ccccc2)c(-c2nc3c(cnn3-c3ccccc3)c(=O)[nH]2)c1N
- Activity: 92%

SMILES: CCOC(=O)C1=C(N)Oc2c(c(C)nn2C(=O)c2ccncc2)C1c1c(-c2ccccc2)[nH]c2ccccc12 (configuration not stated)
- Activity [10]: 70.2%
- Activity [11]: 74.5%
- Activity [13]: 66.6 to 76.1%

SMILES: CCOC(=O)C1=C(N)Oc2c(c(C)nn2C(=O)c2ccncc2)C1c1c(-c2ccc(C)cc2)[nH]c2ccc(Cl)cc12 (configuration not stated)
- Activity [12]: 66.6 to 76.1%

SMILES: O=C(c1ccc(Cl)cc1)N1N=C(Cn2c3ccccc3c3nc4cc(Cc5ccc6nc(-c7ccccc7)c(-c7ccccc7)nc6c5)ccc4nc32)CC1c1ccc(F)cc1 (configuration not stated)
- Activity [8]: 40.6%

SMILES: Cc1c(C)c2c(c(C)c1O)CCC(C)(C(=O)O)O2 (configuration not stated)
- inhibition [7]: 64%

SMILES: Cc1ccc(N2N=C(c3ccccc3)CC2Cn2cnc3c(N4CCOCC4)ncnc32)cc1 (configuration not stated)
- Activity [6]: 43 to 44%
- inhibition [7]: 5.8%

SMILES: O=C1[C@H]2C(c3ccccc3)=NN(c3ccccc3)[C@H]2C(=O)N1c1ccc(Cl)cc1
- Activity [9]: < 40%

SMILES: COc1cc(C2=NN(c3ccccc3)[C@H]3C(=O)N(c4ccccc4)C(=O)[C@@H]23)cc(OC)c1OC
- Activity [9]: < 55%

SMILES: Cc1ccc(-c2nn(-c3ccccc3)cc2/C=C/C(=O)c2cccc(NC(=O)c3ccc(F)cc3)c2)cc1
- Activity [2]: 36.8 to 42.3%
- Activity [3]: 44.4 to 55.5%
- Activity [4]: 32.4 to 77.9%

SMILES: CCOC(=O)C1=C(N)Oc2c(c(C)nn2C(=O)c2ccncc2)C1c1c(-c2ccccc2)[nH]c2ccc(Cl)cc12 (configuration not stated)
- Activity [10]: 76.7%

SMILES: CCOC(=O)c1c(C)nn(-c2cccc(Cl)c2)c1-c1ccc([N+](=O)[O-])cc1
- inhibition [14]: 22.2 to 49.9%

SMILES: O=S(=O)(NC(=S)Nc1ccc(F)cc1)c1ccc(N2N=C(c3ccco3)CC2c2cnn(-c3ccccc3)c2)cc1 (configuration not stated)
- Activity [5]: 27%

SMILES: O=C(/C=C/c1cn(-c2ccccc2)nc1-c1cccc([N+](=O)[O-])c1)c1cccc(NC(=O)c2ccc(F)cc2)c1
- Activity [2]: 33.3%
- Activity [4]: 32.4 to 77.9%

SMILES: c1ccc(C2=NN(c3ccccc3)C(Cn3cnc4c(N5CCOCC5)ncnc43)C2)cc1 (configuration not stated)
- Activity [6]: 13 to 24%
- inhibition [7]: 100%
